Source: PubChem BioAssay (NCI)
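Interpolation was linear, between the two tested concentrations surrounding the appropriate level; five concentrations were tested over 48 hours in 96-well plates. GI50 is the concentration that inhibits growth by half. TGI marks complete inhibition of growth.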

Assays:
Assay in all cases: DTP human tumour cell line panel, 48 h
[1] = system: SK-MEL-5 melanoma
[2] = system: DU-145 prostate
[3] = system: COLO 205 colon
[4] = system: HT29 colon
[5] = system: BT-549 breast
[6] = system: CAKI-1 renal
[7] = system: RXF 393 renal
[8] = system: SF-539 CNS
[9] = system: MCF7 breast
[10] = system: HS 578T breast
[11] = system: MALME-3M melanoma
[12] = system: NCI-H460 lung
[13] = system: A549 NSCLC
[14] = system: OVCAR-3 ovarian
[15] = system: HL-60(TB) leukemia
[16] = system: UACC-257 melanoma
[17] = system: CCRF-CEM leukemia
[18] = system: HOP-92 NSCLC
[19] = system: KM12 colon
[20] = system: NCI-H226 lung
[21] = system: SW-620 colon
[22] = system: RPMI-8226 leukemia
[23] = system: A498 renal
[24] = system: T-47D breast
[25] = system: NCI-H522 lung
[26] = system: SNB-19 CNS
[27] = system: LOX IMVI melanoma
[28] = system: SK-MEL-28 melanoma
[29] = system: HCT-116 colon
[30] = system: 786-0 renal
[31] = system: HOP-62 NSCLC
[32] = system: K-562 leukemia
[33] = system: OVCAR-5 ovarian
[34] = system: UO-31 renal
[35] = system: MDA-MB-468 breast
[36] = system: MDA-MB-435
[37] = system: SNB-75 CNS
[38] = system: U251 CNS
[39] = system: SK-MEL-2 melanoma
[40] = system: SF-268 CNS
[41] = system: PC-3 prostate
[42] = system: OVCAR-4 ovarian
[43] = system: TK-10 renal
[44] = system: MDA-MB-231 breast
[45] = system: OVCAR-8 ovarian
[46] = system: NCI-H23 lung
[47] = system: HCT-15 colon
[48] = system: SF-295 CNS
[49] = system: MOLT-4 leukemia
[50] = system: SN12C renal
[51] = system: ACHN renal
[52] = system: HCC-2998 colon
[53] = system: IGROV1 ovarian
[54] = system: M14 melanoma
[55] = system: SK-OV-3 ovarian
[56] = system: UACC-62 melanoma
[57] = system: NCI/ADR-RES ovarian
[58] = system: EKVX NSCLC

Nc1cccnc1/C=N/NC(=S)NCCNC(=O)c1ccc(-n2nc(-c3ccccc3O)nc2-c2ccccc2O)cc1
GI50 [1]: 0.492 µM
TGI [1]: 2.16 µM
GI50 [2]: 1.6 µM
TGI [2]: > 100 µM
GI50 [3]: 0.329 µM
TGI [3]: 11.7 µM
GI50 [4]: 0.472 µM
TGI [4]: 2.72 µM
GI50 [5]: 0.374 µM
TGI [5]: 2.83 µM
GI50 [6]: 1.24 µM
TGI [6]: > 20.9 µM
GI50 [7]: 1.04 µM
TGI [7]: 4.06 µM
GI50 [8]: 0.106 µM
TGI [8]: 1.36 µM
GI50 [9]: 0.189 µM
TGI [9]: 4.9 µM
GI50 [10]: 0.232 µM
TGI [10]: > 100 µM
GI50 [11]: 0.628 µM
TGI [11]: 8.94 µM
GI50 [12]: 0.396 µM
TGI [12]: 2.46 µM
GI50 [13]: 1.23 µM
TGI [13]: > 23.8 µM
GI50 [14]: 0.366 µM
TGI [14]: 15.9 µM
GI50 [15]: 0.261 µM
TGI [15]: 0.901 µM
GI50 [16]: 0.838 µM
TGI [16]: > 20.7 µM
GI50 [17]: 0.186 µM
TGI [17]: 1.21 µM
GI50 [18]: 0.283 µM
TGI [18]: 5.16 µM
GI50 [19]: 0.48 µM
TGI [19]: 6.53 µM
GI50 [20]: 0.803 µM
TGI [20]: 4.85 µM
GI50 [21]: 0.648 µM
TGI [21]: > 100 µM
GI50 [22]: 0.344 µM
TGI [22]: 2.09 µM
GI50 [23]: 29.7 µM
TGI [23]: > 100 µM
GI50 [24]: 0.225 µM
TGI [24]: 1.91 µM
GI50 [25]: 0.154 µM
TGI [25]: 0.798 µM
GI50 [26]: 0.337 µM
TGI [26]: > 100 µM
GI50 [27]: 0.331 µM
TGI [27]: 1.88 µM
GI50 [28]: 0.532 µM
TGI [28]: > 100 µM
GI50 [29]: 0.305 µM
TGI [29]: 6.67 µM
GI50 [30]: 0.79 µM
TGI [30]: 3.73 µM
GI50 [31]: 0.487 µM
TGI [31]: 5.46 µM
GI50 [32]: 0.115 µM
TGI [32]: > 100 µM
GI50 [33]: 1.57 µM
TGI [33]: > 28.4 µM
GI50 [34]: 1.38 µM
TGI [34]: 5.23 µM
GI50 [35]: 0.249 µM
TGI [35]: 0.935 µM
GI50 [36]: 0.561 µM
TGI [36]: > 100 µM
GI50 [37]: 0.328 µM
TGI [37]: > 33.8 µM
GI50 [38]: 0.305 µM
GI50 [39]: 0.765 µM
TGI [39]: 9.46 µM
GI50 [40]: 0.557 µM
TGI [40]: > 64.4 µM
GI50 [41]: 0.376 µM
TGI [41]: 13.2 µM
GI50 [42]: 0.729 µM
TGI [42]: > 100 µM
GI50 [43]: 1.27 µM
TGI [43]: > 29.7 µM
GI50 [44]: 0.471 µM
TGI [44]: 14.9 µM
GI50 [45]: 0.418 µM
GI50 [46]: 0.454 µM
TGI [46]: 6.97 µM
GI50 [47]: 1.98 µM
TGI [47]: 11.7 µM
GI50 [48]: 0.541 µM
TGI [48]: 2.97 µM
GI50 [49]: 0.3 µM
TGI [49]: > 100 µM
GI50 [50]: 0.494 µM
TGI [50]: 6.35 µM
GI50 [51]: 1.21 µM
TGI [51]: 18.5 µM
GI50 [52]: 0.533 µM
TGI [52]: 8.16 µM
GI50 [53]: 0.355 µM
TGI [53]: 11.6 µM
GI50 [54]: 0.425 µM
TGI [54]: 2.47 µM
GI50 [55]: 0.594 µM
TGI [55]: 3.51 µM
GI50 [56]: 0.236 µM
TGI [56]: 1.05 µM

COc1ccc(-c2cc(C(=O)N=Nc3c(O)[nH]c4ccc(Cl)cc34)c3ccccc3n2)cc1
GI50 [1]: 15.5 µM
TGI [1]: 30.8 µM
GI50 [2]: 15.3 µM
TGI [2]: 29.7 µM
GI50 [3]: 15 µM
TGI [3]: 35.3 µM
GI50 [4]: 4.63 µM
TGI [4]: 31.2 µM
GI50 [5]: 22 µM
TGI [5]: 43 µM
GI50 [6]: 11.7 µM
TGI [6]: 26.4 µM
GI50 [7]: 12.1 µM
TGI [7]: 25.7 µM
GI50 [8]: 15.5 µM
TGI [8]: 29.8 µM
GI50 [9]: 5.32 µM
TGI [9]: 28.2 µM
GI50 [10]: 16.6 µM
TGI [10]: 69.2 µM
GI50 [11]: 14.4 µM
TGI [11]: 28.5 µM
GI50 [12]: 11.5 µM
TGI [12]: 39.7 µM
GI50 [13]: 5.56 µM
TGI [13]: 31.9 µM
GI50 [14]: 11.8 µM
TGI [14]: 26.4 µM
GI50 [15]: 9.57 µM
TGI [15]: > 100 µM
GI50 [16]: 16.6 µM
TGI [16]: 32.6 µM
GI50 [17]: 3.32 µM
TGI [17]: > 100 µM
GI50 [18]: 11.6 µM
TGI [18]: 32.9 µM
GI50 [19]: 21.6 µM
TGI [19]: 57.3 µM
GI50 [20]: 14.3 µM
TGI [20]: 55.1 µM
GI50 [21]: 3.09 µM
TGI [21]: 19.4 µM
GI50 [22]: 14.7 µM
TGI [22]: > 100 µM
GI50 [23]: 21 µM
TGI [23]: 36.1 µM
GI50 [24]: 11.8 µM
TGI [24]: 42.3 µM
GI50 [25]: 16.5 µM
TGI [25]: 39.4 µM
GI50 [26]: 17.4 µM
TGI [26]: 32 µM
GI50 [27]: 3.23 µM
TGI [27]: 13.3 µM
GI50 [28]: 14.7 µM
TGI [28]: 30 µM
GI50 [29]: 5.3 µM
TGI [29]: 63.7 µM
GI50 [30]: 19.8 µM
TGI [30]: 43.7 µM
GI50 [31]: 3.96 µM
TGI [31]: 25.7 µM
GI50 [57]: 12 µM
TGI [57]: 47.3 µM
GI50 [32]: 3.14 µM
TGI [32]: > 100 µM
GI50 [33]: 12.2 µM
TGI [33]: 26.4 µM
GI50 [34]: 11.5 µM
TGI [34]: 24.1 µM
GI50 [35]: 6.78 µM
TGI [35]: 25.9 µM
GI50 [36]: 14.8 µM
TGI [36]: 30.7 µM
GI50 [37]: 12.9 µM
TGI [37]: 27.6 µM
GI50 [38]: 3.57 µM
TGI [38]: 16.2 µM
GI50 [39]: 19.3 µM
TGI [39]: 35.8 µM
GI50 [40]: 16.2 µM
TGI [40]: 37.6 µM
GI50 [41]: 12 µM
TGI [41]: > 100 µM
GI50 [42]: 13 µM
TGI [42]: 43.3 µM
GI50 [43]: 23.9 µM
TGI [43]: 42.3 µM
GI50 [44]: 5.13 µM
TGI [44]: 18.1 µM
GI50 [45]: 10.2 µM
TGI [45]: 35.9 µM
GI50 [46]: 6.43 µM
TGI [46]: 30.8 µM
GI50 [47]: 2.81 µM
TGI [47]: 10.2 µM
GI50 [48]: 13.7 µM
TGI [48]: 29.4 µM
GI50 [49]: 3.88 µM
TGI [49]: > 100 µM
GI50 [50]: 13.9 µM
TGI [50]: 32 µM
GI50 [51]: 10.1 µM
TGI [51]: 23.2 µM
GI50 [52]: 15 µM
TGI [52]: 31.4 µM
GI50 [53]: 13.1 µM
TGI [53]: 30.1 µM
GI50 [54]: 11 µM
TGI [54]: 41.9 µM
GI50 [55]: 15.8 µM
TGI [55]: 33.1 µM
GI50 [58]: 11.4 µM
TGI [58]: 27.1 µM
GI50 [56]: 14.8 µM
TGI [56]: 30.4 µM
